Experimental data as given in paper PMC10052652 (Molecules, 2023).
Read-outs that look alike come from different tables or passages of the source.

Columns and labels:
[1] = DPPH radical scavenging assay
Method: DPPH• (1-1-diphenyl 2-picryl hydrazyl) assay
This method is based on the spectrophotometric assay using the stable radical, DPPH•, as a reagent. First, 20 µL of each sample (4 mg/mL) was mixed with 180 µL of 0.1 mM DPPH• in methanol, in plates, after an incubation of 25 min in the dark. Absorbance was measured at 517 nm. Ascorbic acid was used as the reference compound. The radical-scavenging activities of molecules, expressed as a percentage inhibition of DPPH•, were calculated according to the following formula: Inhibition (%) = [(A control − A sample)/A control] × 100 where A is the absorbance determined at 517 nm. The absorbance of the solvent and DPPH• radical without the molecule was measured as the control.

[2] = system: HCT116 cells; experiment: Cytotoxic activity, MTT assay, HCT116; assay type: cell-based, human; settings: Homo sapiens, HCT-116, 72 h, read-out: IC50 HCT116, MTT, 72 h
Method: (§1) The cancer cell lines used in this study were HCT116 (colorectal carcinoma), IGROV1 (ovarian cancer), OVCAR3 (ovarian cancer), and MCF7 (mammary gland/breast cancer). […] Cell lines were maintained in culture and were incubated at 37 °C in an incubator with 5% CO2 in a humidified atmosphere. All tests were established at 80% of confluence, and viability was estimated with a trypan blue exclusion assay.
(§2) The cytotoxic activities of molecules against cancer cell lines were evaluated using an MTT assay. The MTT colorimetric assay was performed using 96-well plates. Cells were seeded in a 96-well plate, at a concentration of 10 × 10^3 cells/well for HCT116 and 12 × 10^3 cells/well for MCF7, IGROV1, and OVAR. Adherent cells were dispatched and incubated at 37 °C overnight in a 5% CO2-enriched atmosphere. […] After that, the medium was removed, and cells were treated with 50 µL of 3-(4,5-dimethylthazolk-2-yl)-2,5-diphenyl tetrazolium bromide (MTT) solution (3 mg/mL in PBS) at 37 °C for 20 to 40 min. To dissolve the […], we added 80 µL of 100% DMSO. Optical density was measured at 540 nm. All tests were established in triplicate. […]

[3] = biological target: T1, acetylcholinesterase (AChE) (Homo sapiens, UniProt P22303); assay type: biochemical; settings: at 100 µM
T1 sequence (P22303 32-614, species assumed): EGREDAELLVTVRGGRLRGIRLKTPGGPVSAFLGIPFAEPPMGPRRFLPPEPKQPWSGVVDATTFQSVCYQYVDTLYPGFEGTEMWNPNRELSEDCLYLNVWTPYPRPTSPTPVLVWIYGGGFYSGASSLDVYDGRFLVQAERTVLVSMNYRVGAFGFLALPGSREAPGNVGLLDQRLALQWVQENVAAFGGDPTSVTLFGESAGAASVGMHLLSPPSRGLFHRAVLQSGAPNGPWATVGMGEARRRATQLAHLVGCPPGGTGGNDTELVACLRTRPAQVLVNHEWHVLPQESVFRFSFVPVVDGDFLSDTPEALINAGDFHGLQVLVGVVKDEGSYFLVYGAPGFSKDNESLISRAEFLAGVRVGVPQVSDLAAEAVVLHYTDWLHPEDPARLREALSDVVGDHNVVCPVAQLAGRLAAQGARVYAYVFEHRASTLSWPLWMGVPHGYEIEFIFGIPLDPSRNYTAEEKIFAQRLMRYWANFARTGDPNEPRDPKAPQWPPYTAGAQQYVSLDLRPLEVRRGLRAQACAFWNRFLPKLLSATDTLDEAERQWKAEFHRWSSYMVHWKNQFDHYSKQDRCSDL

[4] = system: MCF7 cells; experiment: Cytotoxic activity, MTT assay, MCF7; assay type: cell-based, human
Method: Optical density was measured at 540 nm. All tests were established in triplicate.

[5] = biological target: T2, superoxide dismutase (SOD) (Homo sapiens, UniProt P00441); experiment: biochemical; settings: read-out: Anti SOD IC50
T2 sequence (P00441 whole entry): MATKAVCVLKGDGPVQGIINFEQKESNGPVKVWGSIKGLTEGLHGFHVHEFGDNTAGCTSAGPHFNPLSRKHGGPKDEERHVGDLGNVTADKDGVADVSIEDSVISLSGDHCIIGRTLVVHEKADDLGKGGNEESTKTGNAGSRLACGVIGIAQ
Method: Pyrogallol auto-oxidation due to oxygen in the air can be inhibited by an enzyme that is naturally present in the body: superoxide dismutase (SOD). Furthermore, variations in the pyrogallol auto-oxidation rate in the presence of SOD were evaluated. Tests were carried out in triplicate. The objective was to find an inhibitor of the auto-oxidation of pyrogallol in the presence of a SOD enzyme solution. Samples were tested at a concentration of 50 µg/mL, followed by incubation for 4 min at 25 °C. […] The self-oxidation of pyrogallol was evaluated in the absence of the enzyme. For this, 30 µL of pyrogallol was added to 120 µL of tris buffer (in place of the SOD) (pH 8.5), then followed by the same steps of incubating a positive control (without the molecule); this was performed in the presence of 5% of DMSO to evaluate the percentage of SOD inhibition activity on the auto-oxidation of pyrogallol.

[6] = system: OVCAR-3 cells; experiment: Cytotoxic activity, MTT assay, OVCAR-3; assay type: cell-based; settings: Homo sapiens, OVCAR-3, 72 h, read-out: IC50 OVCAR-3
Method: as §1, §2

[7] = biological target: T3, α-amylase (Homo sapiens, UniProt P04746); experiment: Anti-α-amylase activity (starch/DNS); settings: for Anti α-Amylase %: at 100 µM
T3 sequence (P04746 16-511): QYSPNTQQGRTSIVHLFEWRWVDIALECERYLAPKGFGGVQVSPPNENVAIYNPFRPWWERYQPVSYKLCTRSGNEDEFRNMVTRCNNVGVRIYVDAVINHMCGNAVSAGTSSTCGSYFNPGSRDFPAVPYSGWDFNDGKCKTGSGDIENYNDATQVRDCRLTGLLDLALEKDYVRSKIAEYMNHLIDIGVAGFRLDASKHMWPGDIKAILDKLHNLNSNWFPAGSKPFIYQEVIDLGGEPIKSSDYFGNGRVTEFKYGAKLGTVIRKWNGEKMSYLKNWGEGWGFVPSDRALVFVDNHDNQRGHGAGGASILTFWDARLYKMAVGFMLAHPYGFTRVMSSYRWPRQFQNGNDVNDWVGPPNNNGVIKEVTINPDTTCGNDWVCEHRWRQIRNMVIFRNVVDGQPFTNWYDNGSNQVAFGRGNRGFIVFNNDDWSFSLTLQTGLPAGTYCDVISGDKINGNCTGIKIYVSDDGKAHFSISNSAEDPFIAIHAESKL

[8] = biological target: T2, superoxide dismutase (SOD); assay type: biochemical; settings: at 100 µM
[9] = biological target: T4, xanthine oxidase (XOD) (Homo sapiens, UniProt P47989); assay type: biochemical; settings: at 100 µM
T4 sequence (P47989 whole entry, species assumed): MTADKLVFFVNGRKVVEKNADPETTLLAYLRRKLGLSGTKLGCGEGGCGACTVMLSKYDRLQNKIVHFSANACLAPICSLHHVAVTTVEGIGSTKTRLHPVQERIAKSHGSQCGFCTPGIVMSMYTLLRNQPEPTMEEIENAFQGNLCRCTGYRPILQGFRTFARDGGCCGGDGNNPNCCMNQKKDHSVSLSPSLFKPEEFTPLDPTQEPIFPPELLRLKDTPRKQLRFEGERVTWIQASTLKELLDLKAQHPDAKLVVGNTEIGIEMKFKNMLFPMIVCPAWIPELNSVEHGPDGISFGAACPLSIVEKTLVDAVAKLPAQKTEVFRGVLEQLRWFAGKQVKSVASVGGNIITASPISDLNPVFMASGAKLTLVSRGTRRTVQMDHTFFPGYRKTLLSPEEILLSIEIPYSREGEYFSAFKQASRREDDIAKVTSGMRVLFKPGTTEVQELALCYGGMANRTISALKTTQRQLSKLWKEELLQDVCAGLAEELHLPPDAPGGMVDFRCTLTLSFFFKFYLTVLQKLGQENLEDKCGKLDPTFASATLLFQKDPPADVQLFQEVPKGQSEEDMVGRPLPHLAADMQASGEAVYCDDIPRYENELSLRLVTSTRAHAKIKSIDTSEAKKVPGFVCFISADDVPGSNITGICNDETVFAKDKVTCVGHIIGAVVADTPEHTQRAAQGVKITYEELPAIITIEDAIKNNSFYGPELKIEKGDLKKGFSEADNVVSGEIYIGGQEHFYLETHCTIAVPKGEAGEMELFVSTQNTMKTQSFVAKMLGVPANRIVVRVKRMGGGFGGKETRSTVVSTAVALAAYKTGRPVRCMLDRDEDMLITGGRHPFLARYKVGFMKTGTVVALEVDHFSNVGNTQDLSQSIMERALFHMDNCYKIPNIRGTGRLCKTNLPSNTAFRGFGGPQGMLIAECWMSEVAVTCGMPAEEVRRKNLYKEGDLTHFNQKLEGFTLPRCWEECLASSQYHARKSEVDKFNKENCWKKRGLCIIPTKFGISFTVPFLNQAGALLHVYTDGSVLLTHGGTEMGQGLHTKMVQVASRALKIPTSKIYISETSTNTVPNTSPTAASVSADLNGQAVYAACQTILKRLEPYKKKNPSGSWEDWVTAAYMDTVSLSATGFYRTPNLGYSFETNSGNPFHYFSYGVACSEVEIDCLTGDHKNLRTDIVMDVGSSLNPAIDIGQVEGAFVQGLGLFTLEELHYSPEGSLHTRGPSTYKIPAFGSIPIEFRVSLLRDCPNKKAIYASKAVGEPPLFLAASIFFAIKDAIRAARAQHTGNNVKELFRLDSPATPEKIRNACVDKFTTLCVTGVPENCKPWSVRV

[10] = biological target: T1, acetylcholinesterase (AChE); experiment: biochemical
Method: The enzymatic activity was assessed via a modified colorimetric Ellman′s method. First, 50 µL of Tris-HCl buffer (pH 8), 25µL of a buffer solution of the sample (50 µg/mL), and 25 µL of an acetylcholinesterase (AChE) enzyme solution containing 2.8 U/mL were mixed. A reaction was then initiated via the addition of 125 µL of 3 mM […]. After incubation for 15 min at 25 °C, 25 µL of a solution of iodide acetylthiocholine15 mM was added to a 96-well microplate. […] Inhibition (%) was calculated in the following way: Inhibition (%) = [(A control − A sample)/A control] × 100, where (A sample) is the absorbance of the molecule containing the reaction and (A control) is the absorbance of the reaction control. Tests were carried out in triplicate.

[11] = system: SKOV-3 cells; experiment: Cytotoxic activity, MTT assay, SKOV-3; assay type: cell-based, human
[12] = biological target: T4, xanthine oxidase (XOD); experiment: biochemical; settings: read-out: Anti XOD IC50
Method: Anti-xanthine oxidase activity was assayed spectrophotometrically under aerobic conditions. First, 50 µL (50 µg/mL) of samples were added to 60 µL of phosphate buffer (pH 7.5) and 30 µL of xanthine oxidase enzyme solution (0.01 units/mL in phosphate buffer; pH 7.5). After pre-incubation at 25 °C for 15 min, the reaction was initiated by the addition of 60 µL of xanthine substrate solution (prepared in the same buffer). The assay mixture was incubated at 25 °C for 5 min. […] The assay was performed in triplicate. […] Tests were carried out in triplicate.

[13] = ABTS radical cation scavenging assay; settings: for ABTS Assay %: at 100 µM
Method: ABTS (2,2′-azinobis-3-ethylbenzothiazoline-6-sulfonate) assay
The radical scavenging capacity of antioxidants for the ABTS radical cation was evaluated following this method: ABTS was prepared by adding 7 mM solution of ABTS at pH 7.4 (5 mM NaH2PO4, 5 mM Na2HPO4, and 154 mM NaCl) with 2.5 mM potassium persulfate. The mixture was stored at room temperature for 16 h in the dark before use and prepared […]. Once diluted with persulfate buffer, the absorbance of the mixture yielded an absorbance value of 0.70 ± 0.05 units at 734 nm. Then, 20 µL of each tested sample was mixed with fresh ABTS solution (180 µL), then the absorbance was measured 6 min after the initial mixing. Ascorbic acid was used as a standard. The capacity of free radical scavenging was expressed as a percentage of the inhibition values. The percentage of inhibition is calculated using the same expression employed in the DPPH assay.

[14] = Homo sapiens, SK-OV-3, 72 h, read-out: IC50 SKOV-3, MTT, 72 h

For `Cc1ccc(-c2cc(=O)c3cc(O)ccc3o2)cc1` [Molecule M17, 6-hydroxy-4′-methylflavone], the IC50 [1] was > 100 µM, the IC50 [2] was 40.4 ± 1.2 µM and the “Anti ACHE %” value [3] was 50.8 ± 4.1%. For the same compound, the IC50 ([4]; Homo sapiens, MCF7, 72 h) was > 50 µM, the IC50 [5] was > 50 µM and the IC50 [6] was > 50 µM. The IC50 [7] was > 100 µM, the “Anti SOD %” value [8] was 80.9 ± 0.2% and the “Anti XOD %” value [9] was 67.7 ± 2.1%. The IC50 ([10]; read-out: Anti ACHE IC50) was > 50 µM, the IC50 [11, 14] was 43.8 ± 0.9 µM and the IC50 [12] was 0.8 ± 0.1 µM. The IC50 [13] was > 50 µM.
With `COc1cc(O)c2c(=O)cc(-c3ccc(O)cc3)oc2c1` [Molecule M12, 4′,5-dihydroxy-7-methoxyflavone] the IC50 [1] was > 100 µM, the IC50 [2] was 38.5 ± 1.2 µM and the “Anti ACHE %” value [3] was 51.0 ± 0.3%. For the same compound, the IC50 ([4]; Homo sapiens, MCF7, 72 h) was > 50 µM, the IC50 [5] was > 100 µM and the IC50 [6] was 47 ± 1.4 µM. For the same compound, the IC50 [7] was 9 ± 0.1 µM, the “Anti α-Amylase %” value [7] was 111.7 ± 0.8% and the “Anti SOD %” value [8] was 42.1 ± 5.3%. For the same compound, the “Anti XOD %” value [9] was 58.2 ± 3.1%, the IC50 [10] was > 50 µM and the IC50 [11, 14] was 44.7 ± 1.2 µM. For the same compound, the IC50 [12] was 1.2 ± 0.1 µM, the IC50 [13] was > 100 µM and the “ABTS Assay %” value [13] was 30.3 ± 0.6%.
With `Cc1cccc(COc2cc(O)c3c(=O)cc(-c4ccccc4)oc3c2)c1` [Molecule M15, 5-hydroxy-7-((3-methylbenzyl)oxy)-2-phenyl-4h-chromen-4-one] the IC50 [1] was > 100 µM, the IC50 [2] was > 50 µM and the “Anti ACHE %” value [3] was 55.3 ± 2.7%. For the same compound, the IC50 ([4]; Homo sapiens, MCF7, 72 h) was > 50 µM, the IC50 [5] was > 100 µM and the IC50 [6] was 45.6 ± 1.4 µM. The IC50 [7] was > 100 µM, the “Anti α-Amylase %” value [7] was 46.2 ± 4.4% and the “Anti SOD %” value [8] was 26.5 ± 3.3%. For the same compound, the IC50 ([10]; read-out: Anti ACHE IC50) was > 50 µM, the IC50 [11, 14] was > 50 µM and the IC50 [12] was > 100 µM. For the same compound, the IC50 [13] was > 100 µM and the “ABTS Assay %” value [13] was 25.6 ± 0.7%.
For `O=c1cc(-c2cccc(O)c2)oc2cccc(O)c12` [Molecule M14, 5,3′-dihydroxyflavone], the IC50 [1] was > 100 µM, the “Anti ACHE %” value [3] was 55.0 ± 1.9% and the IC50 ([4]; 72 h) was > 50 µM. For the same compound, the IC50 ([4]; Homo sapiens, MCF7, 72 h) was > 100 µM, the IC50 [5] was > 100 µM and the IC50 [6] was > 50 µM. The IC50 [7] was 6.7 ± 0.9 µM, the “Anti α-Amylase %” value [7] was 109.6 ± 1.7% and the “Anti SOD %” value [8] was 5.7 ± 2.5%. For the same compound, the “Anti XOD %” value [9] was 71.3 ± 4.7%, the IC50 ([10]; read-out: Anti ACHE IC50) was > 50 µM and the IC50 [11, 14] was > 100 µM. For the same compound, the IC50 ([11]; read-out: IC50 SKOV-3, MTT, 72 h) was > 50 µM, the IC50 [12] was 2 ± 0.1 µM and the IC50 [13] was > 100 µM. The “ABTS Assay %” value [13] was 16.9 ± 0.3%.
